Measured values reported in patent US20230026840A1, “COMPOUND USED AS EGFR KINASE INHIBITOR AND USE THEREOF” (TYK MEDICINES, INC., priority 2019, published 2023).

biological target: EGFR (L858R/T790M/C797S) kinase (Homo sapiens, UniProt P00533, C797S/L858R/T790M); experiment: Kinase activity assay against EGFR(L858R/T790M/C797S) kinase at ATP Km concentration (33P-ATP, filter-binding); format: biochemical; settings: 10 concentrations, 20 min preincubation, 2 h reaction at room temperature
Description: The biological activity screening of the compounds will be determined repeatedly at 10 concentrations.
Each sample was prepared into a solution with a concentration of 10 mM. […]
a. Preparing basic buffer solution and quenching buffer solution for experimental kinase […]
b. Preparing compounds for experimental kinase
The test compound was dissolved in 100% dimethyl sulfoxide to a specific concentration. Integra Viaflo Assist was used to assist DMSO for (continuous) dilution.
Kinase was added to the newly prepared basic reaction buffer
Adding any desired cofactors to the substrate solution.
Acoustic technology (Echo 550; Nanoliter range) was used to feed the compounds in 100% of dimethyl sulfoxide into the kinase reaction mixture and incubated at room temperature for 20 minutes.
33P-ATP (specific activity 10 Ci/l) was added to the reaction mixture to start the reaction.
Incubated at room temperature for 2 hours
Radioactivity was detected by filter-binding method.
Kinase activity data was expressed as the percentage of remaining kinase activity in the test sample compared to the vehicle (dimethyl sulfoxide) reaction. Prism ([…] software) was used to obtain IC50 value and curve-fitting.

Chain of EGFR (L858R/T790M/C797S) kinase (P00533 25-1210 T790M/C797S/L858R): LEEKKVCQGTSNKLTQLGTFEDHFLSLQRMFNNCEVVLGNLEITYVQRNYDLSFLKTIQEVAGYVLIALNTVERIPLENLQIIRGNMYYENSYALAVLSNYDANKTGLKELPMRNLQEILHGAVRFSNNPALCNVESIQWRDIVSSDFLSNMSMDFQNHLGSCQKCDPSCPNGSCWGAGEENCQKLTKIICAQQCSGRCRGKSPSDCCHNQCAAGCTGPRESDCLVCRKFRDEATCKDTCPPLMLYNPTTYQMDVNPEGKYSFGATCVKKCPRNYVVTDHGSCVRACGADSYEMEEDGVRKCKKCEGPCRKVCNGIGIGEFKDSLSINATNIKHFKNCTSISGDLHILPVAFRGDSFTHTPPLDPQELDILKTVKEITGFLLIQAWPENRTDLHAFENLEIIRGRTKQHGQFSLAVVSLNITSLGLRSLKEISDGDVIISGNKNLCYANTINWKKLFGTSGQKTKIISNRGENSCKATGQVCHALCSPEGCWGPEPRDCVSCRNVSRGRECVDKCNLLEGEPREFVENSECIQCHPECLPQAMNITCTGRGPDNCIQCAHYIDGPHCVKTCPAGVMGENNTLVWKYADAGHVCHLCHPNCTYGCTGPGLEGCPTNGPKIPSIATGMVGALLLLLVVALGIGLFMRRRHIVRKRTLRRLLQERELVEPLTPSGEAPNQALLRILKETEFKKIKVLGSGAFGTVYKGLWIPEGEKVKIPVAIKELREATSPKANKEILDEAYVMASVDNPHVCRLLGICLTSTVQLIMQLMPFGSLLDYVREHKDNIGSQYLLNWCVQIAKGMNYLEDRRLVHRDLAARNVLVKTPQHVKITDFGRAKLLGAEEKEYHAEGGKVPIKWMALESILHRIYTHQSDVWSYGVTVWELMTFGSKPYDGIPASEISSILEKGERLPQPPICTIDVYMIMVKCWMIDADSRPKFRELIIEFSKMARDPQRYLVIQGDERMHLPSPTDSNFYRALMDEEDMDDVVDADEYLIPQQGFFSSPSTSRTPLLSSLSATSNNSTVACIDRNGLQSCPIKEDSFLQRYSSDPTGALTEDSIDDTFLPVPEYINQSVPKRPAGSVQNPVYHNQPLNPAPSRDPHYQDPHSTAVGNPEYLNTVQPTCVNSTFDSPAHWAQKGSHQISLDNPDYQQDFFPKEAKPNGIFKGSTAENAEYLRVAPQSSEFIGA

In order of falling IC50:
1. [2H]C(F)(F)Oc1cc(-n2ncc3c2CN(C)C3)c(C)cc1Nc1ncc(Cl)c(Nc2ccccc2P(C)(C)=O)n1 [Compound C10]  1850 nM
2. COc1cc2c(cc1Nc1ncc(Cl)c(Nc3ccccc3P(C)(C)=O)n1)CCCN2CC(=O)N1CCN(C)CC1 [Compound C25]  803 nM
3. CCc1cc(Nc2nc(Nc3ccc4nccnc4c3P(C)(C)=O)c3cccnc3n2)c(OC)cc1N1C[C@H]2CN(C)C[C@H]2C1 [Compound C28]  803 nM
4. [2H]C(F)(F)Oc1cc(N2C3CC2CN(C)C3)ccc1Nc1ncc(Cl)c(Nc2ccccc2P(C)(C)=O)n1 [Compound C5]  321 nM
5. CCc1cc(Nc2nc(Nc3ccc4nccnc4c3P(C)(C)=O)c3ccccc3n2)c(OC)cc1N1C[C@H]2CN(C)C[C@H]2C1 [Compound C27]  204 nM
6. [2H]C(F)(F)Oc1cc(-n2cc3c(n2)CN(C)C3)c(C)cc1Nc1ncc(Cl)c(Nc2ccccc2P(C)(C)=O)n1 [Compound C9]  181 nM
7. [2H]C(F)(F)Oc1cc(N2CC3CCCNC3C2)ccc1Nc1ncc(Cl)c(Nc2ccccc2P(C)(C)=O)n1 (centres unmarked) [Compound C6]  178 nM
8. [2H]C(F)(F)Oc1cc(N2CC3CC(C2)N3C)ccc1Nc1ncc(Cl)c(Nc2ccccc2P(C)(C)=O)n1 [Compound C3]  130 nM
9. [2H]C(F)(F)Oc1cc(N2C[C@H]3CNC[C@H]3C2)ccc1Nc1ncc(Cl)c(Nc2ccccc2P(C)(C)=O)n1 [Compound C4]  107 nM
10. [2H]C(F)(F)Oc1cc(N2CC3CCNC3C2)ccc1Nc1ncc(Cl)c(Nc2ccccc2P(C)(C)=O)n1 (centres unmarked) [Compound C12]  74.7 nM
11. [2H]C(F)(F)Oc1cc(N2C[C@H]3COC[C@H]3C2)ccc1Nc1ncc(Cl)c(Nc2ccccc2P(C)(C)=O)n1 [Compound C20]  69.6 nM
12. [2H]C(F)(F)Oc1cc(-n2cc3c(n2)CNC3)ccc1Nc1ncc(Cl)c(Nc2ccccc2P(C)(C)=O)n1 [Compound C7]  22.3 nM
13. COc1cc2c(cc1Nc1ncc(Cl)c(Nc3ccccc3P(C)(C)=O)n1)CCCN2CCN1CCN(C)CC1 [Compound C23]  20.5 nM
14. COc1cc2c(cc1Nc1ncc(Cl)c(Nc3ccccc3P(C)(C)=O)n1)CCCN2C(=O)CN1CCN(C)CC1 [Compound C24]  19.5 nM
15. [2H]C(F)(F)Oc1cc(N2CC3CCN(C)C3C2)ccc1Nc1ncc(Cl)c(Nc2ccccc2P(C)(C)=O)n1 (centres unmarked) [Compound C11]  17.6 nM
16. [2H]C(F)(F)Oc1cc(N2CC3CC(C2)N3)ccc1Nc1ncc(Cl)c(Nc2ccccc2P(C)(C)=O)n1 [Compound C2]  16.6 nM
17. [2H]C(F)(F)Oc1cc(N2C3CNCC2C3)ccc1Nc1ncc(Cl)c(Nc2ccccc2P(C)(C)=O)n1 [Compound C13]  16.6 nM
18. [2H]C(F)(F)Oc1cc(-n2cc3c(n2)CN(C)C3)ccc1Nc1ncc(Cl)c(Nc2ccccc2P(C)(C)=O)n1 [Compound C14]  13.7 nM
19. [2H]C(F)(F)Oc1cc(N2C[C@H]3CN(C)C[C@H]3C2)ccc1Nc1ncc(Cl)c(Nc2ccccc2P(C)(C)=O)n1 [Compound C1]  12.4 nM
20. CCc1cc(Nc2ncc(Br)c(Nc3ccc4nccnc4c3P(C)(C)=O)n2)c(OC)cc1N1C[C@H]2CN(C)C[C@H]2C1 [Compound C22]  0.3 nM
